Experimental data: ChEMBL document CHEMBL4699459, “Structure activity study of S-trityl-cysteamine dimethylaminopyridine derivatives as SIRT2 inhibitors: Improvement of SIRT2 binding and inhibition” (Bioorg Med Chem Lett, 2020)

Tests used:
[1] = target: T1, NAD-dependent protein deacetylase sirtuin-2 (Homo sapiens, UniProt Q8IXJ6); experiment: Inhibition of recombinant SIRT2 (unknown origin) using FAM-labeled RHKK(Ac) LM peptide as substrate incubated for 60 mins by electrophoretic mobility shift assay
T1 sequence (Q8IXJ6 whole entry): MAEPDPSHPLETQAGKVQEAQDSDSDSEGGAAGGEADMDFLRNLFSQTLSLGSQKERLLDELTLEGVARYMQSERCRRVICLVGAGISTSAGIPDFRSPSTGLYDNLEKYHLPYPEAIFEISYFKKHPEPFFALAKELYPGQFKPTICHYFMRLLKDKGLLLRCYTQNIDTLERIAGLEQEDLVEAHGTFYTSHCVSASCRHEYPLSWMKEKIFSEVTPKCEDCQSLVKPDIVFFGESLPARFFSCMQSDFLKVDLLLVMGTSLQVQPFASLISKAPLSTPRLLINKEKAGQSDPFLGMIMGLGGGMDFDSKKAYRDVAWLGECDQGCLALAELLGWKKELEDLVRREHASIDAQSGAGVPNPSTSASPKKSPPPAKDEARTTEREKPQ

MCF7 = experiment: Antiproliferative activity against human MCF7 cells assessed as reduction in cell proliferation measured after 3 days by MTT assay; assay type: functional, cell-based; conditions: MCF7, 72 h
HL-60 = experiment: Antiproliferative activity against human HL-60 cells assessed as reduction in cell proliferation measured after 3 days by MTT assay; assay type: functional, cell-based; conditions: HL-60, 72 h
K562 = experiment: Antiproliferative activity against human K562 cells assessed as reduction in cell proliferation measured after 3 days by MTT assay; assay type: functional, cell-based; conditions: K562, 72 h
MT2 = experiment: Cytotoxicity against human MT2 cells assessed as reduction in cell proliferation measured after 3 days by MTT assay; assay type: cell-based; conditions: MT2, 72 h
HeLa = experiment: Antiproliferative activity against human HeLa cells assessed as reduction in cell proliferation measured after 3 days by MTT assay; assay type: functional, cell-based; conditions: 72 h

SMILES	IC50 [1] [µM]	IC50 (MCF7) [µM]	IC50 (HL-60) [nM]	IC50 (K562) [nM]	IC50 (HeLa) [nM]	IC50 (MT2) [µM]
CN(C)c1ccnc(CNCCS)c1	> 100					
c1ccc(C(SCCNCc2ccccn2)(c2ccccc2)c2ccccc2)cc1	39.3	7.44	5760	3150	4150	3.56
COC(=O)[C@@H](CSC(c1ccccc1)(c1ccccc1)c1ccccc1)NCc1cc(N(C)C)ccn1	10.8	3.16	450	2170	1560	3.15
CN(C)c1ccnc(CNCCSC(c2ccccc2)(c2ccccc2)c2ccccc2)c1	7.5	5.1	1870	2440	2250	3.16
CN(C)c1ccc(CNCCSC(c2ccccc2)(c2ccccc2)c2ccccc2)c(Cl)c1	> 100					

Second part, led by results:

IC50 [1] [µM]	IC50 (MCF7) [µM]	IC50 (HL-60) [nM]	IC50 (K562) [nM]	IC50 (HeLa) [nM]	SMILES	IC50 (MT2) [µM]
> 100					CN(C)c1ccnc(CNCCSC(C)(C)C)c1	
7.6	4.97	2680	1110	1320	CCN(CC)c1ccnc(CNCCSC(c2ccccc2)(c2ccccc2)c2ccccc2)c1	2.22
> 100					CN(C)c1cccc(CNCCSC(c2ccccc2)(c2ccccc2)c2ccccc2)c1	
> 100					NCCSC(c1ccccc1)(c1ccccc1)c1ccccc1	
> 100					CN(C)c1ccnc(C(=O)NCCSC(c2ccccc2)(c2ccccc2)c2ccccc2)c1	
> 100					COc1cc(N(C)C)ccc1CNCCSC(c1ccccc1)(c1ccccc1)c1ccccc1	
